Measurements published in paper PMC7915732, “Screening of Yeast Display Libraries of Enzymatically Treated Peptides to Discover Macrocyclic Peptide Ligands” (International Journal of Molecular Sciences, 2021).

Assays:
N-terminal YAP (N-YAP) = biological target: T1, N-terminal YAP (N-YAP) (Homo sapiens, UniProt P46937); assay: Yeast surface titration (yeast-displayed peptide, soluble biotinylated N-terminal YAP); type: binding; conditions: linear peptide, no transglutaminase
T1 construct: which affords the expression of N-terminal YAP (AAs 1–291); made in house; host or cells: Rosetta E. coli
T1 sequence (P46937 1-291): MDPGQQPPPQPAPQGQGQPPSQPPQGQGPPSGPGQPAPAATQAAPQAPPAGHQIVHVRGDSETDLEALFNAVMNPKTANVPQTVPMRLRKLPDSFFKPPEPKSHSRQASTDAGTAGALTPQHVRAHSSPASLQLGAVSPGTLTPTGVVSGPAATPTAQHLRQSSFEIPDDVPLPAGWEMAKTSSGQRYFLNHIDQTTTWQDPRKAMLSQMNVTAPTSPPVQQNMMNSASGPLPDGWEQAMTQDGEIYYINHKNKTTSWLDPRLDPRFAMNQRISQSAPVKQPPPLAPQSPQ
Experimental: (§1) The binding affinity of cyclo[E-[…]-K] for N-terminal YAP and WW-YAP was characterized using a yeast surface titration method developed in prior work. Specifically, yeast cells displaying (putative) cyclo[E-[…]-K] were incubated with soluble, biotinylated N-terminal YAP or WW-YAP to generate binding isotherms; the fraction of cell surface fusions bound by the biotinylated target protein was quantified via immunofluorescent detection of SA-PE (Figure 4). The resulting data were fit to a monovalent binding isotherm to estimate the binding affinity (KD) of the peptide (Table 1). […]
(§2) Figure 4 Surface titrations of (A) yeast cells displaying (putative) cyclo[E-[…]-K] with the WW domain of YAP (WW-YAP, black circles) and bovine serum albumin (BSA, green diamonds); (B) yeast cells displaying the linear peptide sequence […] with WW-YAP; (C) yeast cells displaying (putative) cyclo[E-[…]-K] with N-terminal-YAP (N-YAP, black circles) and BSA (green diamonds); and (D) yeast cells displaying the linear peptide sequence […] with N-YAP. The binding of each biotinylated protein was detected using SA-PE followed by flow cytometry analysis. […]
(§3) Yeast cells encoding the linear precursor […] were induced. […] The cells were then analyzed by flow cytometry as described in [21, 50]. A SA-PE only labeling was also carried out to quantify the mean background fluorescence. […]

[1] = biological target: T2, WW domains of YAP (WW-YAP) (Homo sapiens, UniProt P46937); assay: Yeast surface titration (yeast-displayed peptide, soluble biotinylated WW-YAP); type: binding; set-up: key to KD (apparent) WW-YAP: N/D: not detectable; L/B: low binding; conditions: for binding to WW-YAP (in words): linear peptide, no transglutaminase
T2 construct: which affords the expression of the WW domains of YAP (AAs 165–271); made in house; host or cells: Rosetta E. coli
T2 sequence (P46937 165-271): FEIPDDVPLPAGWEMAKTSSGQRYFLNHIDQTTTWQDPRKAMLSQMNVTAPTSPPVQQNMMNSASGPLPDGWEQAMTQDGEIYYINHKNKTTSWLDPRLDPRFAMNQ
Experimental: The binding affinity of cyclo[E-[…]-K] for N-terminal YAP and WW-YAP was characterized using a yeast surface titration method developed in prior work. Specifically, yeast cells displaying (putative) cyclo[E-[…]-K] were incubated with soluble, biotinylated N-terminal YAP or WW-YAP to generate binding isotherms; the fraction of cell surface fusions bound by the biotinylated target protein was quantified via immunofluorescent detection of SA-PE (Figure 4). The resulting data were fit to a monovalent binding isotherm to estimate the binding affinity (KD) of the peptide (Table 1). Binding isotherms were also generated using BSA (Figure 4A,C), to characterize the binding selectivity, as well as for cells displaying the linear precursor ([…]), to evaluate the effect of cyclization on the binding activity of the identified peptide sequence (Figure 4B,D).
as §2
Yeast cells encoding the linear precursor […] were induced. […] The cells were then analyzed by flow cytometry as described in [21, 50]. A SA-PE only labeling was also carried out to quantify the mean background fluorescence. […] The values of KD were estimated using Equation (1):(1) F=Fmax[L]o/KD+[L]o where F is the background subtracted mean fluorescence intensity, [L]o is the concentration of soluble target protein used for labeling, and Fmax is the background subtracted fluorescence intensity when surface-saturation is obtained. Fmax was set as the highest value of fluorescence observed in each data set. […]

[2] = biological target: bovine serum albumin (BSA) (Bos taurus, UniProt P02769); assay: Yeast surface titration with biotinylated BSA (selectivity control); type: binding; conditions: Figure S7A, intracellular transglutaminase route
Chain of bovine serum albumin (BSA) (P02769 25-607): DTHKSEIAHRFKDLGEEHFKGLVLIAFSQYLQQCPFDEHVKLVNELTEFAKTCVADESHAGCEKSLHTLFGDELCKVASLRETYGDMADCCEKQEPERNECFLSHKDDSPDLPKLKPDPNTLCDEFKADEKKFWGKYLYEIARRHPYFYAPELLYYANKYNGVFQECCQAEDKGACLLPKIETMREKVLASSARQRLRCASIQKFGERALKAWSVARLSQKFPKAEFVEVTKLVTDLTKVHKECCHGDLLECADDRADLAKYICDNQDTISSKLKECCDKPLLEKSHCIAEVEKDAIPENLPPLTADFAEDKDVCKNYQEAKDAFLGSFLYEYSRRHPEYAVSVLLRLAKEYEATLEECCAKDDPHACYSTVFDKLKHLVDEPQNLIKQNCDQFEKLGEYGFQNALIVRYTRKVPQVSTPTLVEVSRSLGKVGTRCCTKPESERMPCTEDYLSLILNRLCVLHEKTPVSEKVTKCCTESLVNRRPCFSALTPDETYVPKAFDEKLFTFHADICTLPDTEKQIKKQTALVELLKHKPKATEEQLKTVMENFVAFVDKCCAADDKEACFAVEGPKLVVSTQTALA
Experimental: as §1, §2, §3

TEV protease [3] = assay: TEV protease cleavage, intracellular transglutaminase co-expression, flow cytometry; conditions: 48 h induction
From the text: Screening of Yeast Display Libraries of Enzymatically Treated
Peptides to Discover Macrocyclic Peptide Ligands
John Bowen, John Schneible, Kaitlyn Bacon, Collin Labar, Stefano Menegatti and Balaji M. Rao […]
Plasmid construction for intracellular […]
peptide precursors on the surface […]
expression of the transglutaminase en-zyme downstream of the Gal10 promoter. […]
and inserted between the AgeI and KpnI sites of […]
under the direction of the Gal1 promoter and transglutaminase under the direction of the Gal10 promoter. […]
a 6 base pair oligonucleotide encoding the Kex2 recognition site between the pro and active transglutaminase sequence
50 ng of purified PCR product was treated with 1 […]
perature followed by incubation
DNA was then treated for 5 min at room
(New England Biolabs) prior to transformation into electrocompe- […]
introduce a point mutation […]
with an alanine (A) residue
, followed by the treatments with […]
prior to kinase, ligase, and DpnI treatment
Evaluation of intracellular transglutaminase […]
induction, a subset of the cells was treated with TEV protease as described in Section 2.3 to evaluate the extent of putative peptide cyclization. […] Induced cells that were not exposed to TEV protease were also analyzed for comparison. […]
S.1.5. […] The enrich-ment of peptide binders targeting N-terminal YAP between the screening rounds was evaluated via flow cytometry. […]

transglutaminase = assay: Flow cytometry detection of c-myc tag after extracellular transglutaminase treatment; conditions: 1 μM transglutaminase overnight, 37 °C, PBS pH 6, three independent replicates
From the text: In this study, we adopted the sequence […] as a model linear precursor to evaluate the efficiency of transglutaminase-mediated cyclization on the surface of yeast cells; this peptide, in fact, served as model substrate in prior work on transglutaminase-mediated cyclization. Specifically, we designed a plasmid construct to express the lead sequence […] as an Aga2p fusion on the surface of Saccharomyces cerevisiae cells. Together with the model peptide, the Aga2p fusion construct contains c-myc and HA epitope tags as well as a tobacco etch virus (TEV) protease signal recognition sequence (Figure 1B). […]
(§4) Yeast cells displaying linear peptide precursors (model sequence […] or 8-mer library sequences) fused to specific epitope tags (HA and c-myc tags for model sequence […]; HA and His tags for library cells) were induced. […] The non-fluorescently conjugated primary antibodies were detected by labeling with a 1:250 dilution of goat-anti-chicken antibody (Immunoreagents, Raleigh, NC, USA) or donkey-anti-rabbit (Immunoreagents, Raleigh, NC, USA) labeled with Alexa Fluor 488 (green), respectively. […] At least 50,000 cells from each sample were analyzed using a MACSQuant VYB Cytometer (Miltenyi Biotec, Bergisch Gladbach, Germany)).

TEV protease [4] = assay: Cleavage of yeast-displayed peptide by TEV protease, flow cytometry; conditions: TEV 3 μM overnight, 37 °C, PBSCl pH 8, three independent replicates
From the text: We further evaluated the alleged cyclization yield by assessing the extent of cleavage of transglutaminase-treated vs. untreated peptide constructs from yeast cells by TEV protease. The latter recognizes the sequence ENLYFQ-G/S and cleaves between the Q and G/S residues. We hypothesize that peptide modifications—such as cyclization –inhibit TEV protease from interacting with its recognition sequence included between the construct’s His tag and HA tag. Accordingly, yeast cells expressing the linear peptide precursor—that were either treated with transglutaminase or left untreated—were incubated with TEV protease, and the binding of antibodies targeting the HA and c-myc tags was quantified via flow cytometry. […]
as §4, with “Germany)). […]” for “Germany)).”

QLYLAYPAHK
binding to N-terminal YAP (in words) (N-terminal YAP (N-YAP)): shown to bind to N-terminal YAP | binding to WW-YAP (in words) ([1]; listed as linear form of the peptide): not WW-YAP | binding to WW-YAP (in words) ([1]; listed as linear precursors): much lower binding affinity | KD (apparent) WW-YAP ([1]; monovalent binding isotherm, 1 h at 4 °C, 0.1% PBSA, SA-PE flow cytometry, average of three independent replicates ± one standard error): L/B

cyclo[E-VQCRGKGEQ-K] (sidechain bridge or staple) [putative cyclic peptide from intracellular transglutaminase library]
binding specificity N-terminal YAP vs. BSA (in words) [2]: selective binder for N-terminal YAP

ALASGSRGGG [active TG, Q-to-A lead/c-myc]
c-myc detection after TEV protease (intracellular constructs) (TEV protease [3]): significantly lower binding

ALQSGSRGGG-EQKLISEEDL [model peptide]
c-myc signal change on transglutaminase treatment (transglutaminase): a notable decrease in the c-myc signal | c-myc level after TEV protease, transglutaminase-treated (TEV protease [4]; transglutaminase-treated): only a slight decrease | c-myc level after TEV protease, no transglutaminase (TEV protease [4]; untreated with transglutaminase): significant decrease in fluorescence
